Results reported in article PMC8403366, “Functional significance of gain-of-function H19 lncRNA in skeletal muscle differentiation and anti-obesity effects” (Genome Medicine, 2021).

Assays:
[1] = tested on: C57BL/6 J mice on a HFD; experiment: HFD-induced obesity model: body, muscle and fat weights, body composition; format: in vivo, mouse; conditions: HFD-fed male mice; for body weight: n = 10
Procedure: (§1) To determine the effects of H19-Rgof with a skeletal muscle enrichment peptide agrin (AGR-H19-Rgof) on WT C57BL/6 J or Lep^Ob/Ob mice, AGR-tagged oligonucleotides were used. The synthesis and sequence information of AGR-tagged RNA oligonucleotides are described in “Synthesis of H19-Rgof mimics, AGR-H19-Rgof mimics, and Pharmacokinetics (PK) studies.” AGR-Scr (conjugated to scramble oligonucleotides), H19-Rgof, or AGR-H19-Rgof mimics were injected at a dose of 1 mg/kg intraperitoneally into 3-week-old male and female mice. For AGR-H19-Rgof treatment in HFD (Cat # D12492, Research Diets, Inc.)-fed mice, male C57BL/6 J mice were fed with a HFD starting at 6 weeks of age. The AGR-H19-Rgof and AGR-Scr mimics were injected at a dose of 0.5 or 1 mg/kg intraperitoneally every other day starting 2 weeks after the initiation of HFD feeding. Body weight was measured weekly. The general health condition, grooming, and behavior of all animals were monitored daily, and injection sites were checked for signs of redness or edema.
(§2) Unless otherwise indicated, mice were fasted for 4–6 h, anesthetized with isoflurane, and sacrificed by heart puncture. Tissues were dissected, weighed, and either dipped in liquid nitrogen or fixed for immunohistochemistry analysis. Individual muscle was dissected on one side of the body and weighed. Adipose tissues including white adipose tissue (WAT), visceral adipose tissue (VAT), and brown adipose tissue (BAT) were collected and weighed.
(§3) Whole-body composition parameters were measured in male and female mice fed with either chow or HFD by Faxitron Specimen Radiography System (Faxitron X-Ray Corp.) to precisely measure total body fat and lean mass. Mice were housed in the Oxymax/CLAMS metabolic cage system (Columbus Instruments) for 4 days with ad libitum access to food and water. Volume of oxygen uptake (VO2) and exhaled carbon dioxide (VCO2), respiratory exchange ratio (RER), and activity were measured using the Oxymax system. RER is determined by dividing VCO2 produced by VO2 consumed.

[2] = tested on: Lep^Ob/Ob mice; experiment: Leptin deficiency-induced obesity model; format: in vivo, mouse
Procedure: The mice used in this study were purchased from Jackson Lab as follows: Lep^Ob/Ob (stock 000632), C57BL/6 J (stock 000664). All animals were from a C57BL/6 J background and housed with a 12 h light/12 h dark cycle in the animal facility with free access to water and food. 4 to 10 mice were used in each group. Exact numbers for each experiment are included in the figure legends.
as §1
Unless otherwise indicated, mice were fasted for 4–6 h, anesthetized with isoflurane, and sacrificed by heart puncture. Tissues were dissected, weighed, and either dipped in liquid nitrogen or fixed for immunohistochemistry analysis. Individual muscle was dissected on one side of the body and weighed. […]
H&E staining was performed in paraffin-embedded livers to visualize the pattern of lipid accumulation and inflammatory status. […] Adipocyte size (from WAT) was determined with ImageJ software. Sections from five animals per group were used and at least 500 adipocytes per animal were measured from multiple fields.

[3] = tested on: C57BL/6 J mice; experiment: Run-to-exhaustion and sprint treadmill tests; format: in vivo, mouse
Procedure: Exhaustion treadmill running and sprint running were used to evaluate the physiological activity of the mice. The mice were repeatedly exercised twice weekly for 2 weeks using a treadmill (Ugo Basile, 57631, Stoelting). For the animal exercise, mice were placed on the horizontal treadmill starting at 5 m/min and kept on for about 10 min. The speed was then increased to 10 m/min for the remaining 30 min. Treadmill training was […] and followed a standardized protocol. When performing the speed test, the mice were placed on a treadmill with a 15° incline. We increased the speed from 6 m/min to 26 m/min at increments of 2 m/min, which each increment lasting 2 min. Mice were considered to have reached the point of exhaustion when they made contact with the grid for a period of time greater than 5 s. The running speed of the mice was recorded and the animals were returned to their cages once exhausted. For the sprint test: the sprint regimen consisted of mice warming up for 3 min at 6 m/min on a 0° incline, followed by a 2 min run at the same speed with a 15° incline. Subsequent runs were performed at a 15° incline. Speed was first increased to 14 m/min for 30 s, followed by 1.5 min of low speed running at 6 m/min. The speed was then increased to 18 m/min for 30 s. Afterwards, we increased the speed from 18 m/min to 24 m/min at 2 m/min increments, with each increment lasting 15 s […]. After that, the mice continued interval running at 6 m/min for 3 min, followed by an increase in the speed from 20 m/min to 32 m/min at 4 m/min increments, with each increment lasting 15 s. This pattern of exercise continued with subsequent intervals running at 6 m/min for 3 min, followed by a sharp increase in speed from 22 m/min to 34 m/min at 4 […], with each increment lasting 15 s. This pattern was repeated with increasing speed until the mice could no longer keep up and gave up on the grid.

[4] = tested on: C57BL/6 J mice; experiment: Blood analyses (serum lipids, hormones, ALT, AST)
Procedure: Whole blood was collected by tail bleeding from un-anesthetized mice or cardiac puncture from mice under deep terminal anesthesia. Mice have been fasted for 4–6 h before blood collection. Total cholesterol (TC) and triglycerides (TG) were determined by enzymatic assays using commercial kits (BioAssay Systems). Alanine aminotransferase (ALT) and aspartate aminotransferase (AST) levels were measured using Alanine Transaminase Colorimetric Activity Assay Kit (700260, Cayman Chemical) and EnzyChrom Aspartate Transaminase Assay Kit (EASTR-100, BioAssay Systems). Serum levels of leptin (ELM-Leptin-1, RayBiotech), IGF1 (RAB0229, Sigma), IGF2 (RAB0231, Sigma), insulin (90080, Crystal Chem), and testosterone (KGE010, R&D) were measured by ELISA assay according to the manufacturer’s instructions.

[5] = tested on: WT C57BL/6 J mice; experiment: Muscle and fat weights and body composition of treated WT mice; format: in vivo, mouse; conditions: 1 mg/kg i.p. every 3 days, 12 weeks
Procedure: as §1, §2, §3

[6] = HFD-fed mice, vs AGR-Scr, n = 5

Substance: N-terminal-ELTNEIPAELTNEIPA-Linker-5'-[2’-F-C][2’-F-U][2’-F-C][2’-F-U][2’-F-U][2’-F-U][2’-F-A][2’-F-U][2’-F-U][2’-F-U][2’-F-C][2’-F-U][2’-F-G][2’-F-A][2’-F-G][2’-F-C][2’-F-U][2’-F-U][2’-F-U][2’-F-C][2’-F-C][2’-F-U][2’-F-A][2’-F-U][2’-F-C][2’-F-U][2’-F-U][2’-F-U][2’-F-C][2’-F-C]-3' [AGR-H19-Rgof]
- body weight ([1]; 0.5 mg/kg i.p. every other day): significantly reduced
- body weight ([1]; 1 mg/kg i.p. every other day): significantly reduced
- fat percentage (body composition) ([1]; vs AGR-Scr, n = 5): reduced
- fat weight (body composition) ([1]; vs AGR-Scr, n = 5): reduced
- lean weight (body composition) ([1]; vs AGR-Scr, n = 5): increased
- fat mass ([1]; vs AGR-Scr, n = 10, 9): reduced
- skeletal muscle mass ([1]; vs AGR-Scr, n = 10, 9): increased
- fatty acid deposition in livers ([2]; Lep^ob/ob mice, Oil Red O, n = 8, 8): significantly improved
- muscle mass ([2]; Lep^ob/ob mice, vs AGR-Scr, n = 10, 9): increased
- body weight ([2]; male Lep^ob/ob mice, 8 weeks post-treatment, vs AGR-Scr, n = 10, 9): reduced
- running speed [3, 6]: elevated
- total running time [3, 6]: elevated
- running speed, treadmill exhaustion test ([3]; WT male and female mice, vs Scr-treated controls, n = 15): increased speed
- maximum running speed, sprint interval treadmill ([3]; WT male and female mice, vs control, n = 10): elevated
- serum triglyceride concentrations ([4]; HFD-fed male mice, n = 10, 7): reduced
- IGF1 concentration ([4]; HFD-fed male mice, serum): unaltered
- IGF2 concentration ([4]; HFD-fed male mice, serum): unaltered
- total cholesterol ([4]; HFD-fed mice, n = 10, 9): reduced
- leptin ([4]; HFD-fed mice, serum, n = 7, 7): reduced
- total cholesterol ([4]; WT mice on chow, serum, vs AGR-Scr, n = 5): reduced
- serum triglyceride concentrations ([4]; WT mice on chow, vs AGR-Scr, n = 7): reduced
- body weight (body composition analysis) ([5]; vs AGR-Scr): increased body weight
- fat percentage (body composition analysis) ([5]; vs AGR-Scr): reduced
- fat weight (body composition analysis) ([5]; vs AGR-Scr): reduced
- lean weight (body composition analysis) ([5]; vs AGR-Scr): increased
- fat weight (BAT, WAT, VAT) ([5]; vs AGR-Scr or H19-Rgof): reduced fat weight
- muscle weight ([5]; vs AGR-Scr or H19-Rgof): increased muscle weight
